The text below walks through data of doi:10.1101/2020.06.11.145995v1 (biorxiv, 2020).

Molecules are shown by their SMILES.

This experiment has as its target T1, C202S (C218S) mutant MKK7 kinase domain (Homo sapiens, UniProt O14733, C202S).
T1 sequence (O14733 1-419 C202S): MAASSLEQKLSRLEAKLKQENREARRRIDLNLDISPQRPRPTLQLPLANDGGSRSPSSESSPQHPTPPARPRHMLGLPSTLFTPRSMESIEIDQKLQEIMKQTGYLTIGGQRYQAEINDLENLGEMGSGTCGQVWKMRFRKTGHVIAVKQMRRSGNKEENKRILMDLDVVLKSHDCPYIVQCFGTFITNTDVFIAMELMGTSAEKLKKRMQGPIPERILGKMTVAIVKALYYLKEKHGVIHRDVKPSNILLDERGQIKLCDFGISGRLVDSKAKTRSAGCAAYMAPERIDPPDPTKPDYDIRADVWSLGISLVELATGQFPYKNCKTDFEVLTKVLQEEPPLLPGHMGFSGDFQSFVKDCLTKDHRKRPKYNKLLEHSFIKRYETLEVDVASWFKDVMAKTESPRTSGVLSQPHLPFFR
The settings on record: binder.
For the molecule `Cc1cc(Nc2cc(C3CC3)[nH]n2)nc(Nc2ccc(CC#N)cc2)n1` [ASC69], the “ΔTm C202S” value was found to be 4.9 °C.
In the case of `O=C1Nc2ccccc2/C1=C/c1c[nH]cn1` [K00007] it was 2.3 °C; in that of `Brc1c(Br)c(Br)c2[nH]nnc2c1Br` [K00040, TBB (218697)], 3.3 °C.
In the case of `O=C1NC(=O)C(=Cc2ccc3c(c2)OC(F)(F)O3)S1` [K00828, PI3Kg inhib II (528108)] it was 0.6 °C.
In the case of `CCN1CCN(Cc2ccc(NC(=O)c3ccc(C)c(C=Cc4cnc5[nH]ccc5c4OC)c3)cc2C(F)(F)F)CC1` [K03427, HG-6-64-01] it was 3.5 °C.
